Source: patent publication US9546156B2, “N-bicyclic aryl,N'-pyrazolyl urea, thiourea, guanidine cyanoguanidine compounds as TrkA kinase inhibitors” (Array BioPharma Inc., priority 2012, dated 2017)

Key:
Assay in all cases: Off-target kinase profiling (KinaseProfiler)
Format in all cases: biochemical
Details in all cases: 10 μM, ATP near Km
ALK = biological target: T1, ALK (Homo sapiens, UniProt Q9UM73)
T1 construct: purchased Millipore, Inc. (KinaseProfiler service)
Experimental: (§1) A representative compound (Example 16) of the invention was tested for off-target kinase activity at a concentration of 10 μM by Millipore, Inc. in their KinaseProfiler™ service against all the kinases available in their full kinase panel. The compound was run in duplicate at a concentration of ATP near the Km for each individual kinase according to Millipore's specifications. The results are shown in Table B. Data are reported as percent of control (POC) and are the average of the two replicates.

EphB1 = biological target: T2, EphB1 (Homo sapiens, UniProt P54762)
T2 construct: purchased Millipore, Inc. (KinaseProfiler service)
Experimental: as §1

Flt1 = biological target: T3, Flt1 (Homo sapiens, UniProt P17948)
T3 construct: purchased Millipore, Inc. (KinaseProfiler service)
Experimental: as §1

TrkB = biological target: T4, TrkB (Homo sapiens, UniProt Q16620)
T4 construct: purchased Millipore, Inc. (KinaseProfiler service)
Experimental: as §1

FGFR2 = biological target: T5, FGFR2 (Homo sapiens, UniProt P21802)
T5 construct: purchased Millipore, Inc. (KinaseProfiler service)
Experimental: as §1

CK1gamma1 = biological target: T6, CK1gamma1 (Homo sapiens, UniProt Q9HCP0)
T6 construct: purchased Millipore, Inc. (KinaseProfiler service)
Experimental: as §1

SGK1 = biological target: T7, SGK1 (Homo sapiens, UniProt O00141, S422D)
T7 construct: purchased Millipore, Inc. (KinaseProfiler service)
Experimental: as §1

EphA1 = biological target: T8, EphA1 (Homo sapiens, UniProt P21709)
T8 construct: purchased Millipore, Inc. (KinaseProfiler service)
Experimental: as §1

AMPK(A1/B1/G1) = biological target: T9, AMPK(A1/B1/G1) (Homo sapiens, UniProt Q13131)
T9 construct: purchased Millipore, Inc. (KinaseProfiler service)
Experimental: as §1

ALK4 = biological target: T10, ALK4 (Homo sapiens, UniProt P36896)
T10 construct: purchased Millipore, Inc. (KinaseProfiler service)
Experimental: as §1

JNK1alpha1 = biological target: T11, JNK1alpha1 (Homo sapiens, UniProt P45983)
T11 construct: purchased Millipore, Inc. (KinaseProfiler service)
Experimental: as §1

Rsk2 = biological target: T12, Rsk2 (Homo sapiens, UniProt P51812)
T12 construct: purchased Millipore, Inc. (KinaseProfiler service)
Experimental: as §1

MINK = biological target: T13, MINK (Homo sapiens, UniProt Q8N4C8)
T13 construct: purchased Millipore, Inc. (KinaseProfiler service)
Experimental: as §1

GRK6 = biological target: T14, GRK6 (Homo sapiens, UniProt P43250)
T14 construct: purchased Millipore, Inc. (KinaseProfiler service)
Experimental: as §1

PKD1 = biological target: T15, PKD1 (Homo sapiens, UniProt Q15139)
T15 construct: purchased Millipore, Inc. (KinaseProfiler service)
Experimental: as §1

Rsk4 = biological target: T16, Rsk4 (Homo sapiens, UniProt Q9UK32)
T16 construct: purchased Millipore, Inc. (KinaseProfiler service)
Experimental: as §1

CDK2/cyclinA = biological target: T17, CDK2/cyclinA (Homo sapiens, UniProt P24941)
T17 construct: purchased Millipore, Inc. (KinaseProfiler service)
Experimental: as §1

Fer = biological target: T18, Fer (Homo sapiens, UniProt P16591)
T18 construct: purchased Millipore, Inc. (KinaseProfiler service)
Experimental: as §1

DMPK = biological target: T19, DMPK (Homo sapiens, UniProt Q09013)
T19 construct: purchased Millipore, Inc. (KinaseProfiler service)
Experimental: as §1

DDR2 = biological target: T20, DDR2 (Homo sapiens, UniProt Q16832)
T20 construct: purchased Millipore, Inc. (KinaseProfiler service)
Experimental: as §1

MST3 = biological target: T21, MST3 (Homo sapiens, UniProt Q9Y6E0)
T21 construct: purchased Millipore, Inc. (KinaseProfiler service)
Experimental: as §1

WNK2 = biological target: T22, WNK2 (Homo sapiens, UniProt Q9Y3S1)
T22 construct: purchased Millipore, Inc. (KinaseProfiler service)
Experimental: as §1

PKCdelta = biological target: T23, PKCdelta (Homo sapiens, UniProt Q05655)
T23 construct: purchased Millipore, Inc. (KinaseProfiler service)
Experimental: as §1

MEK1 = biological target: T24, MEK1 (Homo sapiens, UniProt Q02750)
T24 construct: purchased Millipore, Inc. (KinaseProfiler service)
Experimental: as §1

PASK = biological target: T25, PASK (Homo sapiens, UniProt Q96RG2)
T25 construct: purchased Millipore, Inc. (KinaseProfiler service)
Experimental: as §1

MRCKalpha = biological target: T26, MRCKalpha (Homo sapiens, UniProt Q5VT25)
T26 construct: purchased Millipore, Inc. (KinaseProfiler service)
Experimental: as §1

DAPK1 = biological target: T27, DAPK1 (Homo sapiens, UniProt P53355)
T27 construct: purchased Millipore, Inc. (KinaseProfiler service)
Experimental: as §1

CK1delta = biological target: T28, CK1delta (Homo sapiens, UniProt P48730)
T28 construct: purchased Millipore, Inc. (KinaseProfiler service)
Experimental: as §1

PKCeta = biological target: T29, PKCeta (Homo sapiens, UniProt P24723)
T29 construct: purchased Millipore, Inc. (KinaseProfiler service)
Experimental: as §1

Ret = biological target: T30, Ret (Homo sapiens, UniProt P07949)
T30 construct: purchased Millipore, Inc. (KinaseProfiler service)
Experimental: as §1

PRKG1beta = biological target: T31, PRKG1beta (Homo sapiens, UniProt Q13976)
T31 construct: purchased Millipore, Inc. (KinaseProfiler service)
Experimental: as §1

PRKG1alpha = biological target: T32, PRKG1alpha (Homo sapiens, UniProt Q13976)
T32 construct: purchased Millipore, Inc. (KinaseProfiler service)
Experimental: as §1

TSSK2 = biological target: T33, TSSK2 (Homo sapiens, UniProt Q96PF2)
T33 construct: purchased Millipore, Inc. (KinaseProfiler service)
Experimental: as §1

NEK2 = biological target: T34, NEK2 (Homo sapiens, UniProt P51955)
T34 construct: purchased Millipore, Inc. (KinaseProfiler service)
Experimental: as §1

AKT3 = biological target: T35, AKT3 (Homo sapiens, UniProt Q9Y243)
T35 construct: purchased Millipore, Inc. (KinaseProfiler service)
Experimental: as §1

PTK5 = biological target: T36, PTK5 (Homo sapiens, UniProt P42685)
T36 construct: purchased Millipore, Inc. (KinaseProfiler service)
Experimental: as §1

CAMK1d = biological target: T37, CAMK1d (Homo sapiens, UniProt Q8IU85)
T37 construct: purchased Millipore, Inc. (KinaseProfiler service)
Experimental: as §1

ROCK-I = biological target: T38, ROCK-I (Homo sapiens, UniProt Q13464)
T38 construct: purchased Millipore, Inc. (KinaseProfiler service)
Experimental: as §1

MSK2 = biological target: T39, MSK2 (Homo sapiens, UniProt O75676)
T39 construct: purchased Millipore, Inc. (KinaseProfiler service)
Experimental: as §1

PDK1 = biological target: T40, PDK1 (Homo sapiens, UniProt O15530)
T40 construct: purchased Millipore, Inc. (KinaseProfiler service)
Experimental: as §1

MKK4_m = biological target: T41, MKK4_m (Mus musculus, UniProt P47809)
T41 construct: purchased Millipore, Inc. (KinaseProfiler service)
Experimental: as §1

T14 sequence (P43250 whole entry): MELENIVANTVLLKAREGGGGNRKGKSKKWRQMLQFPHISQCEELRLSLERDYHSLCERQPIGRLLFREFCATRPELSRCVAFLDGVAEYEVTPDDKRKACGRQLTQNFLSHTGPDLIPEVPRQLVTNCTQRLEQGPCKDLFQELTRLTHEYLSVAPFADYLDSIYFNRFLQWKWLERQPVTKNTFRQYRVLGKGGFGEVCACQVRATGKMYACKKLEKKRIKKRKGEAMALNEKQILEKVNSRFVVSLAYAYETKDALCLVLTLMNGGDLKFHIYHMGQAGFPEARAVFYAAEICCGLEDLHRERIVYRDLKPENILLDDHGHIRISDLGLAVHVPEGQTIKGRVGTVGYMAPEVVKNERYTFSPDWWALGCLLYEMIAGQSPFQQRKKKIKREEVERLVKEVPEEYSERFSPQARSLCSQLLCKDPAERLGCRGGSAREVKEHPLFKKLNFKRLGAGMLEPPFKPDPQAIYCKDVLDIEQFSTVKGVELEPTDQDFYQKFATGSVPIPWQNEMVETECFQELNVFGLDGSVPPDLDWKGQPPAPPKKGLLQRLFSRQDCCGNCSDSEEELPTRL
T24 sequence (Q02750 whole entry): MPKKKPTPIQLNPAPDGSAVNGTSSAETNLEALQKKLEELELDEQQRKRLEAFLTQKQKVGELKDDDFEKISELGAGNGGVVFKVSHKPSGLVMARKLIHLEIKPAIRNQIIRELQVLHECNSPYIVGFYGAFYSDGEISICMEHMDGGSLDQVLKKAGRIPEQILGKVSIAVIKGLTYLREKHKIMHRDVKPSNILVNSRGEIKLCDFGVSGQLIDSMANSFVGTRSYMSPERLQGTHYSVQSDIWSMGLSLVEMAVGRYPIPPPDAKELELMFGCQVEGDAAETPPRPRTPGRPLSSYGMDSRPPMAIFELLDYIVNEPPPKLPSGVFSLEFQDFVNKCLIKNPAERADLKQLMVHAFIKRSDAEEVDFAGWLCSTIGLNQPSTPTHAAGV
T9 sequence (Q13131 whole entry): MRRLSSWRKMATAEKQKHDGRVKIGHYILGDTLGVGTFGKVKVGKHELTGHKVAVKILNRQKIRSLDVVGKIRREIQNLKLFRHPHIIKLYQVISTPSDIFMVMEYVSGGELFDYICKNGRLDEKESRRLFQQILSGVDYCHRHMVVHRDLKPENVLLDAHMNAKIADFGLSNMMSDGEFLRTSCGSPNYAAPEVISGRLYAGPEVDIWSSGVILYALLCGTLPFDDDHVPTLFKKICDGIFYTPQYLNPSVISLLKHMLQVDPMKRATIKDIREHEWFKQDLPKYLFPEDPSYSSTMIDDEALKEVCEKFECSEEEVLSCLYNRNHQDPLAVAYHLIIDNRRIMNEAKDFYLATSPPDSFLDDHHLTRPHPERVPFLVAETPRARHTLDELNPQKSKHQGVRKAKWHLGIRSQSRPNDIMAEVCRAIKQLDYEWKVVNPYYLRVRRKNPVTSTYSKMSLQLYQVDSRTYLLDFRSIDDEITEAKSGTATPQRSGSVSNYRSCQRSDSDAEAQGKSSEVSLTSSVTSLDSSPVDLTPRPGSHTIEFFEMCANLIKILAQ
T9 sequence (Q9Y478 whole entry partner): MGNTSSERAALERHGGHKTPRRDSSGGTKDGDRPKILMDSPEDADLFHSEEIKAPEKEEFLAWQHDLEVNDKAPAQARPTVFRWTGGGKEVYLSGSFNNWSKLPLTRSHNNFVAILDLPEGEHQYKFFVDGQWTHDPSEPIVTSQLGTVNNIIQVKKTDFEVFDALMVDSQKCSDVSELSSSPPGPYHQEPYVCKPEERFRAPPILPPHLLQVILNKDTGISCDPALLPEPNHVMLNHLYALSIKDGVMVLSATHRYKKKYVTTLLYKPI
T9 sequence (P54619 whole entry partner): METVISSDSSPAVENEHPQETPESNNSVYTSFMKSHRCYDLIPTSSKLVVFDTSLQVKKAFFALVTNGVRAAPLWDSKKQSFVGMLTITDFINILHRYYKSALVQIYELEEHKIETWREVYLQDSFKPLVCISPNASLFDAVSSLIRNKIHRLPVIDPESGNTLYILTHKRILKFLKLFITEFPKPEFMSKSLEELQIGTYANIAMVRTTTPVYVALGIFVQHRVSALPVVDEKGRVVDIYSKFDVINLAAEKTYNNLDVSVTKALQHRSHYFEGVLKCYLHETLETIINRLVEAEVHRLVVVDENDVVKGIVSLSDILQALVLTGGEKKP
T6 sequence (Q9HCP0 whole entry): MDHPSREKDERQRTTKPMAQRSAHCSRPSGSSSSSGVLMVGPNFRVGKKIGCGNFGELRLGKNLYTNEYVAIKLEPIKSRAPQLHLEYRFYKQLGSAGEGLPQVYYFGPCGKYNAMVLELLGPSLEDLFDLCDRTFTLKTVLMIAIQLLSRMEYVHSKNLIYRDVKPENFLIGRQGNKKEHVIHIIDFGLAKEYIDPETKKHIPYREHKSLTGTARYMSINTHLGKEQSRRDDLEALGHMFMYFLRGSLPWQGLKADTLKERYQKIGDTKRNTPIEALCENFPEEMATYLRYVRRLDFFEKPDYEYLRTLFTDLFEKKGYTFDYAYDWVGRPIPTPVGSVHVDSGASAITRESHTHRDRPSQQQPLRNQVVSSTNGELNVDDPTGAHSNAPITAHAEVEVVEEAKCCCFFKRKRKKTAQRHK
T18 sequence (P16591 whole entry): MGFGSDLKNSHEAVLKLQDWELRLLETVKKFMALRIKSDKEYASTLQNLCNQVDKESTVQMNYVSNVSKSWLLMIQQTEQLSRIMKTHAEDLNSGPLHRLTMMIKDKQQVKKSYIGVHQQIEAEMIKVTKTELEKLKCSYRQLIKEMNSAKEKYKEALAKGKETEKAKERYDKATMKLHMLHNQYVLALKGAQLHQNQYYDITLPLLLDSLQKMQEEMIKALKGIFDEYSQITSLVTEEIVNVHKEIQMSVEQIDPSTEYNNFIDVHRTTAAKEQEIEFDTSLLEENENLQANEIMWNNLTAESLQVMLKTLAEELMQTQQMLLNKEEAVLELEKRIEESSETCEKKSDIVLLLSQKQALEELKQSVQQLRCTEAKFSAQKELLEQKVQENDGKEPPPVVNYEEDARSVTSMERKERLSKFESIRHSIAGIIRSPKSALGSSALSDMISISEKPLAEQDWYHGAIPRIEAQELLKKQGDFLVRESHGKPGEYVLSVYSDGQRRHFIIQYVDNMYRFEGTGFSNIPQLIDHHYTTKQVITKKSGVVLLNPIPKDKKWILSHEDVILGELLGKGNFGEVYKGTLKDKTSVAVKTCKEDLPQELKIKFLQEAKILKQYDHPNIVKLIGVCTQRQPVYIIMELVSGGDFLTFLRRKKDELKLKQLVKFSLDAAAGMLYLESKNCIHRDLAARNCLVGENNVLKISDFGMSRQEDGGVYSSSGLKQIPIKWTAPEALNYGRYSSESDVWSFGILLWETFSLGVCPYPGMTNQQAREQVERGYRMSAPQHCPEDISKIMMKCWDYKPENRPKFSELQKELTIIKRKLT
T10 sequence (P36896 24-505): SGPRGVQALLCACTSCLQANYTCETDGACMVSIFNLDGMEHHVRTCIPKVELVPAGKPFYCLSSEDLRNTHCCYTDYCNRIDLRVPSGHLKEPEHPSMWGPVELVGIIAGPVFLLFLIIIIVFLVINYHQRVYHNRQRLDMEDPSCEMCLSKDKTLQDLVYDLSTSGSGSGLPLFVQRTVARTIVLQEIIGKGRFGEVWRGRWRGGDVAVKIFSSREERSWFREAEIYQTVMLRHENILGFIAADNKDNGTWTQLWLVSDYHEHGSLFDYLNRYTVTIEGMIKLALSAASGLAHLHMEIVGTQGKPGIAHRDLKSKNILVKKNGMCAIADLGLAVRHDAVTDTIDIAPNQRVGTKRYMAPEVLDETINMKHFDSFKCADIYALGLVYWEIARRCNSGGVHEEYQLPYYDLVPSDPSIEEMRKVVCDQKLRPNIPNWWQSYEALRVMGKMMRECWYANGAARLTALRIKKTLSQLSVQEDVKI
T4 sequence (Q16620 32-822): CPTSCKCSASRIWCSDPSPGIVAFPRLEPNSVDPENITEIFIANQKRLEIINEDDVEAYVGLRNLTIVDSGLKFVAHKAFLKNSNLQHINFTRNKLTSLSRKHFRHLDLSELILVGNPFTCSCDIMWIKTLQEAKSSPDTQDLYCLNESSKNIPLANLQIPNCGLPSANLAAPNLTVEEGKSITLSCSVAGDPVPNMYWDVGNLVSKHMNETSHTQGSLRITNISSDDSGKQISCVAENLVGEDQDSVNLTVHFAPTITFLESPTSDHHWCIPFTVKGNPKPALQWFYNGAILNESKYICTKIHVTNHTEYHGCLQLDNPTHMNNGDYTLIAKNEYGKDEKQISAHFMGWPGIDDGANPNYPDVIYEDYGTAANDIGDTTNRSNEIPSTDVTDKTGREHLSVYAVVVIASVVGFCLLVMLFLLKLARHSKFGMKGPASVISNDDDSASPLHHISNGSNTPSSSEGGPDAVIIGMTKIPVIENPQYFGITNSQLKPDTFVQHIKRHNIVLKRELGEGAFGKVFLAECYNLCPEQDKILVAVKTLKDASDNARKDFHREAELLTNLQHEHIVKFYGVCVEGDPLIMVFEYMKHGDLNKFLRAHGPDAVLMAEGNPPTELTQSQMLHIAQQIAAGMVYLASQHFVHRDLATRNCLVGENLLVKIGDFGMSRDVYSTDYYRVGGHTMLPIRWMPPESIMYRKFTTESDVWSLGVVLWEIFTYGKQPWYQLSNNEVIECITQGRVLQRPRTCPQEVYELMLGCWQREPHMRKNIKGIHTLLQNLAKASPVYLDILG

In the case of `COCc1ccc2cccc(NC(=O)Nc3c(C)c(-c4cnn(C)c4)nn3-c3ccccc3)c2c1` [Example 16, 1-(1′,4-dimethyl-1-phenyl-1H,1′H-[3,4′-bipyrazol]-5-yl)-3-(7-(methoxymethyl)naphthalen-1-yl)urea], the “Avg POC” value (ALK) is reported as 114.5 POC, the “Avg POC” value (EphB1) is reported as 122 POC and the “Avg POC” value (Flt1) is reported as 115.5 POC. For the same compound, the “Avg POC” value (TrkB) was 9 POC, the “Avg POC” value (FGFR2) was 110 POC and the “Avg POC” value (CK1gamma1) was 115.5 POC. The “Avg POC” value (SGK1) was 169.5 POC, the “Avg POC” value (EphA1) was 104.5 POC and the “Avg POC” value (AMPK(A1/B1/G1)) was 134.5 POC. The “Avg POC” value (ALK4) was 104.5 POC, the “Avg POC” value (JNK1alpha1) was 111.5 POC and the “Avg POC” value (Rsk2) was 139.5 POC. For the same compound, the “Avg POC” value (MINK) was 118.5 POC, the “Avg POC” value (GRK6) was 106 POC and the “Avg POC” value (PKD1) was 117.5 POC. The “Avg POC” value (Rsk4) was 126.5 POC, the “Avg POC” value (CDK2/cyclinA) was 136 POC and the “Avg POC” value (Fer) was 122 POC. For the same compound, the “Avg POC” value (DMPK) was 110.5 POC, the “Avg POC” value (DDR2) was 117.5 POC and the “Avg POC” value (MST3) was 135 POC. The “Avg POC” value (WNK2) was 122.5 POC, the “Avg POC” value (PKCdelta) was 111.5 POC and the “Avg POC” value (MEK1) was 114 POC. The “Avg POC” value (PASK) was 164.5 POC, the “Avg POC” value (MRCKalpha) was 143.5 POC and the “Avg POC” value (DAPK1) was 118 POC. The “Avg POC” value (CK1delta) was 127.5 POC, the “Avg POC” value (PKCeta) was 122 POC and the “Avg POC” value (Ret) was 115 POC. For the same compound, the “Avg POC” value (PRKG1beta) was 119 POC, the “Avg POC” value (PRKG1alpha) was 109.5 POC and the “Avg POC” value (TSSK2) was 134 POC. The “Avg POC” value (NEK2) was 105.5 POC, the “Avg POC” value (AKT3) was 130.5 POC and the “Avg POC” value (PTK5) was 118.5 POC. For the same compound, the “Avg POC” value (CAMK1d) was 134.5 POC, the “Avg POC” value (ROCK-I) was 118 POC and the “Avg POC” value (MSK2) was 107 POC. For the same compound, the “Avg POC” value (PDK1) was 117.5 POC and the “Avg POC” value (MKK4_m) was 120.5 POC.
